PubChem BioAssay (NCI)
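Each compound was tested at five concentrations against cells in 96-well plates for 48 hours. At the TGI there is no net growth.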

How the values were obtained:
Test in all cases: inhibition of tumour cell growth, NCI panel, 48 h
[1] = tested on: 786-0 renal
[2] = tested on: A498 renal
[3] = tested on: A549 NSCLC
[4] = tested on: ACHN renal
[5] = tested on: CAKI-1 renal
[6] = tested on: CCRF-CEM leukemia
[7] = tested on: COLO 205 colon
[8] = tested on: DU-145 prostate
[9] = tested on: EKVX NSCLC
[10] = tested on: HCC-2998 colon
[11] = tested on: HCT-116 colon
[12] = tested on: HCT-15 colon
[13] = tested on: HL-60(TB) leukemia
[14] = tested on: HOP-62 NSCLC
[15] = tested on: HOP-92 NSCLC
[16] = tested on: HS 578T breast
[17] = tested on: HT29 colon
[18] = tested on: IGROV1 ovarian
[19] = tested on: K-562 leukemia
[20] = tested on: KM12 colon
[21] = tested on: LOX IMVI melanoma
[22] = tested on: M14 melanoma
[23] = tested on: MALME-3M melanoma
[24] = tested on: MCF7 breast
[25] = tested on: MDA-MB-231 breast
[26] = tested on: MDA-MB-435
[27] = tested on: MDA-N
[28] = tested on: MOLT-4 leukemia
[29] = tested on: NCI-H226 lung
[30] = tested on: NCI-H23 lung
[31] = tested on: NCI-H460 lung
[32] = tested on: NCI-H522 lung
[33] = tested on: NCI/ADR-RES ovarian
[34] = tested on: OVCAR-3 ovarian
[35] = tested on: OVCAR-4 ovarian
[36] = tested on: OVCAR-5 ovarian
[37] = tested on: OVCAR-8 ovarian
[38] = tested on: PC-3 prostate
[39] = tested on: RPMI-8226 leukemia
[40] = tested on: SF-268 CNS
[41] = tested on: SF-295 CNS
[42] = tested on: SF-539 CNS
[43] = tested on: SK-MEL-2 melanoma
[44] = tested on: SK-MEL-28 melanoma
[45] = tested on: SK-MEL-5 melanoma
[46] = tested on: SK-OV-3 ovarian
[47] = tested on: SN12C renal
[48] = tested on: SNB-19 CNS
[49] = tested on: SNB-75 CNS
[50] = tested on: SR leukemia
[51] = tested on: SW-620 colon
[52] = tested on: T-47D breast
[53] = tested on: TK-10 renal
[54] = tested on: U251 CNS
[55] = tested on: UACC-257 melanoma
[56] = tested on: UACC-62 melanoma
[57] = tested on: UO-31 renal
[58] = tested on: BT-549 breast
[59] = tested on: RXF 393 renal

## O=c1[nH]nc(Cc2ccccc2)n1/N=C/c1c[nH]c2ccccc12
[1]
  TGI: > 100 µM
[2]
  TGI: > 100 µM
[3]
  TGI: > 100 µM
[4]
  TGI: > 100 µM
[5]
  TGI: 81.8 µM
[6]
  TGI: > 100 µM
[7]
  TGI: > 100 µM
[8]
  TGI: > 100 µM
[9]
  TGI: > 100 µM
[10]
  TGI: > 100 µM
[11]
  TGI: > 100 µM
[12]
  TGI: > 100 µM
[13]
  TGI: > 100 µM
[14]
  TGI: > 100 µM
[15]
  TGI: > 100 µM
[16]
  TGI: 79.4 µM
[17]
  TGI: > 100 µM
[18]
  TGI: > 100 µM
[19]
  TGI: > 100 µM
[20]
  TGI: > 100 µM
[21]
  TGI: > 100 µM
[22]
  TGI: > 100 µM
[23]
  TGI: > 100 µM
[24]
  TGI: > 100 µM
[25]
  TGI: > 100 µM
[26]
  TGI: > 100 µM
[27]
  TGI: > 100 µM
[28]
  TGI: > 100 µM
[29]
  TGI: > 100 µM
[30]
  TGI: > 100 µM
[31]
  TGI: > 100 µM
[32]
  TGI: > 100 µM
[33]
  TGI: > 100 µM
[34]
  TGI: > 100 µM
[35]
  TGI: > 100 µM
[36]
  TGI: > 100 µM
[37]
  TGI: > 100 µM
[38]
  TGI: > 100 µM
[39]
  TGI: > 100 µM
[40]
  TGI: 88.1 µM
[41]
  TGI: > 100 µM
[42]
  TGI: > 100 µM
[43]
  TGI: > 100 µM
[44]
  TGI: > 100 µM
[45]
  TGI: > 100 µM
[46]
  TGI: > 100 µM
[47]
  TGI: > 100 µM
[48]
  TGI: > 100 µM
[49]
  TGI: 51.3 µM
[50]
  TGI: > 100 µM
[51]
  TGI: > 100 µM
[52]
  TGI: > 100 µM
[53]
  TGI: > 100 µM
[54]
  TGI: > 100 µM
[55]
  TGI: > 100 µM
[56]
  TGI: > 100 µM
[57]
  TGI: > 100 µM

## COC(=O)/C=C/c1ccccc1N=[S@](C)(=O)c1ccc(C)cc1
[1]
  TGI: > 100 µM
[2]
  TGI: 43.8 µM
[3]
  TGI: > 100 µM
[4]
  TGI: > 100 µM
[58]
  TGI: > 100 µM
[5]
  TGI: > 100 µM
[6]
  TGI: 44.2 µM
[7]
  TGI: 26.7 µM
[8]
  TGI: > 100 µM
[9]
  TGI: > 100 µM
[10]
  TGI: 50.1 µM
[11]
  TGI: 71.8 µM
[12]
  TGI: > 100 µM
[13]
  TGI: 7.25 µM
[14]
  TGI: > 100 µM
[15]
  TGI: > 100 µM
[16]
  TGI: 64.6 µM
[17]
  TGI: > 100 µM
[18]
  TGI: > 100 µM
[19]
  TGI: > 100 µM
[20]
  TGI: > 100 µM
[21]
  TGI: > 100 µM
[22]
  TGI: 55.1 µM
[23]
  TGI: > 100 µM
[24]
  TGI: > 100 µM
[25]
  TGI: 94.4 µM
[26]
  TGI: 16.2 µM
[28]
  TGI: > 100 µM
[29]
  TGI: > 100 µM
[30]
  TGI: > 100 µM
[31]
  TGI: 49.9 µM
[32]
  TGI: 7.99 µM
[33]
  TGI: 72.5 µM
[34]
  TGI: 55.8 µM
[35]
  TGI: > 100 µM
[36]
  TGI: > 100 µM
[37]
  TGI: > 100 µM
[38]
  TGI: > 100 µM
[39]
  TGI: 61.3 µM
[59]
  TGI: 37.1 µM
[40]
  TGI: > 100 µM
[41]
  TGI: 76.9 µM
[42]
  TGI: > 100 µM
[43]
  TGI: 70.7 µM
[44]
  TGI: > 100 µM
[45]
  TGI: 38.3 µM
[46]
  TGI: > 100 µM
[47]
  TGI: > 100 µM
[48]
  TGI: > 100 µM
[49]
  TGI: 36.1 µM
[50]
  TGI: 26.7 µM
[51]
  TGI: > 100 µM
[52]
  TGI: > 100 µM
[53]
  TGI: 71.9 µM
[54]
  TGI: 51 µM
[55]
  TGI: 56.8 µM
[56]
  TGI: > 100 µM
[57]
  TGI: > 100 µM

## CC(=O)c1ccc(N=Nc2ccc3nonc3c2N)cc1
[1]
  TGI: > 100 µM
[3]
  TGI: > 100 µM
[4]
  TGI: > 100 µM
[5]
  TGI: > 100 µM
[6]
  TGI: > 100 µM
[7]
  TGI: > 100 µM
[8]
  TGI: > 100 µM
[9]
  TGI: > 100 µM
[10]
  TGI: > 100 µM
[11]
  TGI: > 100 µM
[12]
  TGI: > 100 µM
[13]
  TGI: > 100 µM
[14]
  TGI: > 100 µM
[15]
  TGI: > 100 µM
[16]
  TGI: > 100 µM
[17]
  TGI: > 100 µM
[18]
  TGI: > 100 µM
[19]
  TGI: > 100 µM
[20]
  TGI: > 100 µM
[21]
  TGI: > 100 µM
[22]
  TGI: > 100 µM
[23]
  TGI: > 100 µM
[24]
  TGI: > 100 µM
[25]
  TGI: > 100 µM
[26]
  TGI: > 100 µM
[27]
  TGI: > 100 µM
[28]
  TGI: > 100 µM
[29]
  TGI: > 100 µM
[30]
  TGI: > 100 µM
[31]
  TGI: > 100 µM
[33]
  TGI: > 100 µM
[34]
  TGI: > 100 µM
[35]
  TGI: > 100 µM
[36]
  TGI: > 100 µM
[37]
  TGI: > 100 µM
[38]
  TGI: > 100 µM
[39]
  TGI: > 100 µM
[59]
  TGI: > 100 µM
[40]
  TGI: > 100 µM
[41]
  TGI: > 100 µM
[42]
  TGI: > 100 µM
[43]
  TGI: > 100 µM
[44]
  TGI: > 100 µM
[45]
  TGI: > 100 µM
[46]
  TGI: > 100 µM
[47]
  TGI: > 100 µM
[48]
  TGI: > 100 µM
[49]
  TGI: > 100 µM
[50]
  TGI: > 100 µM
[51]
  TGI: > 100 µM
[52]
  TGI: > 100 µM
[53]
  TGI: > 100 µM
[54]
  TGI: > 100 µM
[55]
  TGI: > 100 µM
[56]
  TGI: > 100 µM
[57]
  TGI: > 100 µM
